Molecular target: Alpha-glucosidase MAL12 (Saccharomyces cerevisiae (strain ATCC 204508 / S288c), UniProt P53341)
Assay: In-vitro Yeast α-Glucosidase Inhibition Assay
Procedure: α-Glucosidase inhibitory activity was evaluated at 37 °C, by using 0.1M phosphatebuffer (pH6.8) [28]. The enzyme(EC3.2.1.20, Saccharomyces cerevisiae purchased from sigma; catalog # G5003) (0.2 U/mL) was incubated with test compounds and phosphate buffer at 37 °C for 15 min. After 15min of incubation, 0.7 mM of substrate i.e. p-nitrophenyl-α-D-glucopyranoside (Sigma; catalog # N1377) was added and the change in absorbance was recorded at 400 nm for 30min by using spectrophotometer (SpectraMax M2, Molecular Devices, CA, USA).

Sequence of Alpha-glucosidase MAL12 (P53341 whole entry): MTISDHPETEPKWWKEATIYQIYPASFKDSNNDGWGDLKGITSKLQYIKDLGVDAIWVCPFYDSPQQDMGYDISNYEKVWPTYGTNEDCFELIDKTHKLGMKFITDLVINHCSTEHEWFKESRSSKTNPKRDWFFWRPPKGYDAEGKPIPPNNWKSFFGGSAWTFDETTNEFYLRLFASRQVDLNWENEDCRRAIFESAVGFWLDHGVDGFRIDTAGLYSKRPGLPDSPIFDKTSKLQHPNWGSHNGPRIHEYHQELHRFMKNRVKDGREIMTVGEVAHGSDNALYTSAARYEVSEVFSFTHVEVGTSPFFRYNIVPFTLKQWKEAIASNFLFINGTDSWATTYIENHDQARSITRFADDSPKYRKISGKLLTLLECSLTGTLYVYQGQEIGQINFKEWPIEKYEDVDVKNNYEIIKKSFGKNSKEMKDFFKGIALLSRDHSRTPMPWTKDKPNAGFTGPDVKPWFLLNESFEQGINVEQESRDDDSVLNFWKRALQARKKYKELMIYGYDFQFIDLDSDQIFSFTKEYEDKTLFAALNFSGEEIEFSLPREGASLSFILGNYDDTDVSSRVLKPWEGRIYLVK

Row | IC50 [µM] | Structure (SMILES)
1 | 54.2 | Cc1[nH]nc2c1C(c1ccc([N+](=O)[O-])cc1)C(C#N)=C(N)O2 (stereo not given) [6-Amino-3-methyl-4-(4-nitrophenyl)-2,4-dihydropyrano[2,3-c]pyrazole-5-carbonitrile (1)]
2 | 180 | Cc1n[nH]c2c1C(c1ccc(Cl)cc1Cl)C(C#N)=C(N)O2 (stereo not given) [6-Amino-4-(2,4-dichlorophenyl)-3-methyl-2,4-dihydropyrano[2,3-c]pyrazole-5-carbonitrile (4)]
3 | 164 | Cc1[nH]nc2c1C(c1ccccc1OCc1ccccc1)C(C#N)=C(N)O2 (stereo not given) [6-Amino-4-(2-(benzyloxy)phenyl)-3-methyl-2,4-dihydropyrano[2,3-c]pyrazole-5-carbonitrile (33)]
4 | 160 | Cc1[nH]nc2c1C(c1ccc(O)c(OCc3ccccc3)c1)C(C#N)=C(N)O2 (stereo not given) [6-Amino-4-(3-(benzyloxy)-4-hydroxyphenyl)-3-methyl-2,4-dihydropyrano[2,3-c]pyrazole-5-carbonitrile (22)]
5 | 60.8 | COc1cc(C2C(C#N)=C(N)Oc3n[nH]c(C)c32)ccc1OCc1ccccc1 (stereo not given) [6-Amino-4-(4-(benzyloxy)-3-methoxyphenyl)-3-methyl-2,4-dihydropyrano[2,3-c]pyrazole-5-carbonitrile (30)]
